Test results published in patent publication US8288385B2, “6-(3-aza-bicyclo[3.1.0]hex-3-yl)-2-phenyl-pyrimidines” (Actelion Pharmaceuticals Ltd., priority 2009, dated 2012).

Molecular target: T1, human P2Y12 receptor (Homo sapiens, UniProt Q9H244)
T1 construct: expressed in transfected cells; host or cells: Chinese Hamster Ovary (CHO) cells
Assay: P2Y12 receptor binding assay
Details: CHO cells with recombinant expression of the human P2Y12 receptor; tritium-labeled 2-methyl-S-ADP; RT, 2 hours
Protocol: P2Y12 Receptor Binding Assay
Chinese Hamster Ovary (CHO) cells with recombinant expression of the human P2Y12 receptor were cultured in 24 well cell-culture plates. Cells were washed three times with binding buffer (50 mM Tris pH 7.4, 100 mM NaCl, 1 mM EDTA, 0.5% BSA). The cells were then incubated with 0.5 ml per well binding buffer containing tritium-labeled 2-methyl-thio-adenosine 5′-diphosphate (2-methyl-S-ADP) (between 100,000 and 300,000 dpm per well) and various concentrations of test compounds. After incubation at RT for 2 hours, cells were washed three times with binding buffer. Then, cells were solubilized by addition of 0.5 ml solubilization buffer (SDS, NaOH, EDTA). The content of each well was then transferred into beta-counter vials and 2.0 ml of Ultima Gold Scintillation liquid was added.

T1 sequence (Q9H244 whole entry): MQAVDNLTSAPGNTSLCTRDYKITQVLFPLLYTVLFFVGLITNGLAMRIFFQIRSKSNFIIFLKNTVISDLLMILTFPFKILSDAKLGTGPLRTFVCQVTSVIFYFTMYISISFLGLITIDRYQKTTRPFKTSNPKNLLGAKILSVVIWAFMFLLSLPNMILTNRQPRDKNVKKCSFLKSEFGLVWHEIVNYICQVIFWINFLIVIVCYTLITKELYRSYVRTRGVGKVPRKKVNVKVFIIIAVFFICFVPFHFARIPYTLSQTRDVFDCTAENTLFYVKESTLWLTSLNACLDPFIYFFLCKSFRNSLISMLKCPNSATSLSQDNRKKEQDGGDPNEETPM

Structure (SMILES)	IC50 [µM]
CCCCCCOC(=O)N1CCN(C(=O)[C@@H](NC(=O)c2cc(N3C[C@@H]4[C@H](C3)[C@@H]4C(=O)O)nc(-c3ccccc3)n2)C(C)C)CC1 [Example 16, (1α,5α,6β)-3-{6-[(S)-1-(4-Hexyloxycarbonyl-piperazine-1-carbonyl)-2-methyl-propylcarbamoyl]-2-phenyl-pyrimidin-4-yl}-3-aza-bicyclo[3.1.0]hexane-6-carboxylic acid]	0.034
CCCCOC(=O)N1CCN(C(=O)[C@@H](NC(=O)c2cc(N3C[C@@H]4[C@H](C3)[C@@H]4C(=O)O)nc(-c3ccc(C)cc3)n2)C(C)C)CC1 [Example 29, (1α,5α,6β)-3-{6-[(S)-1-(4-Butoxycarbonyl-piperazine-1-carbonyl)-2-methyl-propylcarbamoyl]-2-p-tolyl-pyrimidin-4-yl}-3-aza-bicyclo[3.1.0]hexane-6-carboxylic acid]	0.018
CCCCOC(=O)N1CCN(C(=O)[C@H](Cc2ccccc2)NC(=O)c2cc(N3C[C@@H]4[C@H](C3)[C@@H]4C(=O)O)nc(-c3ccccc3)n2)CC1 [Example 45, (1α,5α,6β)-3-{6-[(S)-1-Benzyl-2-(4-butoxycarbonyl-piperazin-1-yl)-2-oxo-ethylcarbamoyl]-2-phenyl-pyrimidin-4-yl}-3-aza-bicyclo[3.1.0]hexane-6-carboxylic acid]	0.255
CCCCOC(=O)N1CCN(C(=O)[C@@H](NC(=O)c2cc(N3C[C@@H]4[C@H](C3)[C@@H]4C(=O)O)nc(-c3ccccc3)n2)C(C)(C)C)CC1 [Example 43, (1α,5α,6β)-3-{6-[(S)-1-(4-Butoxycarbonyl-piperazine-1-carbonyl)-2,2-dimethyl-propylcarbamoyl]-2-phenyl-pyrimidin-4-yl}-3-aza-bicyclo[3.1.0]hexane-6-carboxylic acid]	0.33
CCCCOC(=O)N1CCN(C(=O)[C@@H](NC(=O)c2cc(N3C[C@@H]4[C@H](C3)[C@@H]4C(=O)O)nc(-c3ccccc3F)n2)C(C)C)CC1 [Example 47, (1α,5α,6β)-3-[6-[(S)-1-(4-Butoxycarbonyl-piperazine-1-carbonyl)-2-methyl-propylcarbamoyl]-2-(2-fluoro-phenyl)-pyrimidin-4-yl]-3-aza-bicyclo[3.1.0]hexane-6-carboxylic acid]	0.012
CCCCOC(=O)N1CCN(C(=O)C(NC(=O)c2cc(N3CC4C(C3)C4C(=O)O)nc(-c3ccccc3)n2)C(C)O)CC1 [Example 42, (1α,5α,6β)-3-{6-[(1S,2R)-1-(4-Butoxycarbonyl-piperazine-1-carbonyl)-2-hydroxy-propylcarbamoyl]-2-phenyl-pyrimidin-4-yl}-3-aza-bicyclo[3.1.0]hexane-6-carboxylic acid]	0.05
CCCCOC(=O)N1CCN(C(=O)[C@H](CP(=O)(OCOC(=O)OCC)OCOC(=O)OCC)NC(=O)c2cc(N3C[C@@H]4[C@H](C3)[C@H]4C(=O)OCC)nc(-c3ccccc3)n2)CC1 [Example 54, (1α,5α,6α)-3-{6-[(R)-1-(Bis-ethoxycarbonyloxymethoxy-phosphorylmethyl)-2-(4-butoxycarbonyl-piperazin-1-yl)-2-oxo-ethylcarbamoyl]-2-phenyl-pyrimidin-4-yl}-3-aza-bicyclo[3.1.0]hexane-6-carboxylic acid ethyl ester]	0.015
CCCCOC(=O)N1CCN(C(=O)[C@H](CC(C)C)NC(=O)c2cc(N3C[C@@H]4[C@H](C3)[C@@H]4C(=O)O)nc(-c3ccccc3)n2)CC1 [Example 39, (1α,5α,6β)-3-{6-[(S)-1-(4-Butoxycarbonyl-piperazine-1-carbonyl)-3-methyl-butylcarbamoyl]-2-phenyl-pyrimidin-4-yl}-3-aza-bicyclo[3.1.0]hexane-6-carboxylic acid]	0.124
CCCCOC(=O)N1CCN(C(=O)[C@@H](NC(=O)c2cc(N3C[C@@H]4[C@H](C3)[C@@H]4C(=O)O)nc(-c3ccccc3)n2)C(C)C)CC1 [Example 11, (1α,5α,6β)-3-{6-[(S)-1-(4-Butoxycarbonyl-piperazine-1-carbonyl)-2-methyl-propylcarbamoyl]-2-phenyl-pyrimidin-4-yl}-3-aza-bicyclo[3.1.0]hexane-6-carboxylic acid]	0.014
CCCCOC(=O)N1CCN(C(=O)[C@H](CCC(=O)O)NC(=O)c2cc(N3C[C@@H]4[C@H](C3)[C@@H]4C(=O)O)nc(-c3ccccc3)n2)CC1 [Example 2, (1α,5α,6β)-3-{6-[(S)-1-(4-Butoxycarbonyl-piperazine-1-carbonyl)-3-carboxy-propylcarbamoyl]-2-phenyl-pyrimidin-4-yl}-3-aza-bicyclo[3.1.0]hexane-6-carboxylic acid]	0.0037
CCCOC(=O)N1CCN(C(=O)[C@@H](NC(=O)c2cc(N3C[C@@H]4[C@H](C3)[C@@H]4C(=O)O)nc(-c3ccccc3)n2)C(C)C)CC1 [Example 14, (1α,5α,6β)-3-{6-[(S)-2-Methyl-1-(4-propoxycarbonyl-piperazine-1-carbonyl)-propylcarbamoyl]-2-phenyl-pyrimidin-4-yl}-3-aza-bicyclo[3.1.0]hexane-6-carboxylic acid]	0.06
CC(C)[C@H](NC(=O)c1cc(N2C[C@@H]3C(C(=O)O)[C@@H]3C2)nc(-c2ccccc2)n1)C(=O)N1CCN(C(=O)OCc2ccccc2)[C@H](C)C1 (stereo partly drawn) [Example 32, (1α,5α,6β)-3-{6-[(S)-1-((R)-4-Benzyloxycarbonyl-3-methyl-piperazine-1-carbonyl)-2-methyl-propylcarbamoyl]-2-phenyl-pyrimidin-4-yl}-3-aza-bicyclo[3.1.0]hexane-6-carboxylic acid]	0.477
CCCCOC(=O)N1CCN(C(=O)[C@H](CP(=O)(OCC)OCC)NC(=O)c2cc(N3C[C@@H]4[C@H](C3)[C@H]4C(=O)OCC)nc(-c3ccccc3)n2)CC1 [Example 50, (1α,5α,6α)-3-{6-[(R)-2-(4-Butoxycarbonyl-piperazin-1-yl)-1-(diethoxy-phosphorylmethyl)-2-oxo-ethylcarbamoyl]-2-phenyl-pyrimidin-4-yl}-3-aza-bicyclo[3.1.0]hexane-6-carboxylic acid ethyl ester]	0.383
CCCCOC(=O)N1CCN(C(=O)[C@@H](NC(=O)c2cc(N3C[C@@H]4[C@@H](C#N)[C@@H]4C3)nc(-c3ccccc3)n2)C(C)C)CC1 [Example 18, 4-((S)-2-{[6-((1α,5α,6α)-6-Cyano-3-aza-bicyclo[3.1.0]hex-3-yl)-2-phenyl-pyrimidine-4-carbonyl]-amino}-3-methyl-butyryl)-piperazine-1-carboxylic acid butyl ester]	0.075
CCCCOC(=O)N1CCN(C(=O)[C@@H](NC(=O)c2cc(N3C[C@@H]4[C@@H](CC(=O)O)[C@@H]4C3)nc(-c3ccccc3)n2)C(C)C)CC1 [Example 24, 4-((S)-2-{[6-((1α,5α,6α)-6-Carboxymethyl-3-aza-bicyclo[3.1.0]hex-3-yl)-2-phenyl-pyrimidine-4-carbonyl]-amino}-3-methyl-butyryl)-piperazine-1-carboxylic acid butyl ester]	0.013
CCCCOC(=O)N1CCN(C(=O)[C@H](CC)NC(=O)c2cc(N3C[C@@H]4[C@H](C3)[C@@H]4C(=O)O)nc(-c3ccccc3)n2)CC1 [Example 36, (1α,5α,6β)-3-{6-[(S)-1-(4-Butoxycarbonyl-piperazine-1-carbonyl)-propylcarbamoyl]-2-phenyl-pyrimidin-4-yl}-3-aza-bicyclo[3.1.0]hexane-6-carboxylic acid]	0.096
CCCCOC(=O)N1CCN(C(=O)[C@H](CCC(=O)O)NC(=O)c2cc(N3C[C@@H]4[C@H](C3)[C@H]4NC(=O)OC(C)(C)C)nc(-c3ccccc3)n2)CC1 [Example 5, 4-((S)-2-{[6-((1α,5α,6α)-6-tert-Butoxycarbonylamino-3-aza-bicyclo[3.1.0]hex-3-yl)-2-phenyl-pyrimidine-4-carbonyl]amino}-4-carboxy-butyryl)-piperazine-1-carboxylic acid butyl ester]	0.0062
CCCCOC(=O)N1CCN(C(=O)[C@H](CC#N)NC(=O)c2cc(N3C[C@@H]4[C@H](C3)[C@@H]4C(=O)O)nc(-c3ccccc3)n2)CC1 [Example 48, (1α,5α,6β)-3-{6-[(S)-1-(4-Butoxycarbonyl-piperazine-1-carbonyl)-2-cyano-ethylcarbamoyl]-2-phenyl-pyrimidin-4-yl}-3-aza-bicyclo[3.1.0]hexane-6-carboxylic acid]	0.074
CCCCOC(=O)N1CCN(C(=O)[C@H](CCC)NC(=O)c2cc(N3C[C@@H]4[C@H](C3)[C@@H]4C(=O)O)nc(-c3ccccc3)n2)CC1 [Example 37, (1α,5α,6β)-3-{6-[(S)-1-(4-Butoxycarbonyl-piperazine-1-carbonyl)-butylcarbamoyl]-2-phenyl-pyrimidin-4-yl}-3-aza-bicyclo[3.1.0]hexane-6-carboxylic acid]	0.123
CCCCOC(=O)N1CCN(C(=O)[C@@H](NC(=O)c2cc(N3C[C@@H]4[C@H](N)[C@@H]4C3)nc(-c3ccccc3)n2)C(C)C)CC1 [Example 23, 4-((S)-2-{[6-((1α,5α,6β)-6-Amino-3-aza-bicyclo[3.1.0]hex-3-yl)-2-phenyl-pyrimidine-4-carbonyl]-amino}-3-methyl-butyryl)-piperazine-1-carboxylic acid butyl ester]	0.266
CCCCOC(=O)N1CCN(C(=O)[C@H](CCC(=O)O)NC(=O)c2cc(N3C[C@@H]4[C@H](C3)[C@@H]4C(=O)OCC)nc(-c3ccccc3)n2)CC1 [Example 4, (1α,5α,6β)-3-{6-[(S)-1-(4-Butoxycarbonyl-piperazine-1-carbonyl)-3-carboxy-propylcarbamoyl]-2-phenyl-pyrimidin-4-yl}-3-aza-bicyclo[3.1.0]hexane-6-carboxylic acid ethyl ester]	0.015
